These results are taken from patent publication US9724347B2, “1-pyrazolyl-3-(4-((2-anilinopyrimidin-4-yl)oxy)napththalen-1-yl) ureas as P38 MAP knase inhibitors” (Respivert Ltd., priority 2011, dated 2017).

The test system of one data set is d-U937 cells. In words: Cell viability: MTT assay. Type of data set: cell-based, human. As to conditions: 1 μg/mL. Here is the method:
Differentiated U937 cells were pre-incubated with each test compound (final concentration 1 μg/mL or 10 μg/mL in 200 μL media indicated below) under two protocols: the first for 4 hr in 5% FCS RPMI1640 media and the second in 10% FCS RPMI1640 media for 24 h. The supernatant was replaced with new media (200 μL) and MTT stock solution (10 μL, 5 mg/mL) was added to each well. After incubation for 1 hr the media were removed, DMSO (200 μL) was added to each well and the plates were shaken lightly for 1 hr prior to reading the absorbance at 550 nm. The percentage loss of cell viability was calculated for each well relative to vehicle (0.5% DMSO) treatment. Consequently an apparent increase in cell viability for drug treatment relative to vehicle is tabulated as a negative percentage.
(In general: Formazan colour is commonly taken as a measure of viable cells.)

The subject of data set [1] is ICAM-1 expression in BEAS2B cells. The data set is described as follows: Poly I:C-induced ICAM-1 expression in BEAS2B cells. In kind it is cell-based, human. Conditions: Homo sapiens, BEAS-2B, read-out: PolyIC/ICAM1 IC50 (BEAS2B). Here is the method: Poly I:C was used in these studies as a simple, RNA virus mimic. Poly I:C-Oligofectamine mixture (1 μg/mL Poly I:C, ±2% Oligofectamine, 25 μL; Invivogen Ltd., San Diego, Calif., and Invitrogen, Carlsbad, Calif., respectively) was transfected into BEAS2B cells (human bronchial epithelial cells, ATCC). Cells were pre-incubated with final concentrations of test compounds for 2 hr and the level of ICAM-1 expression on the cell surface was determined by cell-based ELISA. At a time point 18 hr after poly I:C transfection, cells were fixed with 4% formaldehyde in PBS (100 μL) and then endogenous peroxidase was quenched by the addition of washing buffer (100 μL, 0.05% Tween in PBS: PBS-Tween) containing 0.1% sodium azide and 1% hydrogen peroxide. Cells were washed with wash-buffer (3×200 μL). and after blocking the wells with 5% milk in PBS-Tween (100 μL) for 1 hr, the cells were incubated with anti-human ICAM-1 antibody (50 μL; Cell Signaling Technology, Danvers, Mass.) in 1% BSA PBS overnight at 4° C.
The cells were washed with PBS-Tween (3×200 μL) and incubated with the secondary antibody (100 μL; HRP-conjugated anti-rabbit IgG, Dako Ltd., Glostrup, Denmark). The cells were then incubated with of substrate (50 μL) for 2-20 min, followed by the addition of stop solution (50 μL, 1N H2SO4). The ICAM-1 signal was detected by reading […] the absorbance at 450 nm against a reference wavelength of 655 nm using a spectrophotometer. The cells were then washed with PBS-Tween (3×200 μL) and total cell numbers in each well were determined by reading absorbance at 595 nm after Crystal Violet staining (50 μL of a 2% solution in PBS) and elution by 1% SDS solution (100 μL) in distilled water. The measured OD 450-655 readings were corrected for cell number by dividing with the OD595 reading in each well. The inhibition of ICAM-1 expression was calculated at each concentration of test compound by comparison with vehicle control.

The next data set has as its target GSK 3α enzyme isoform (Homo sapiens (Human), UniProt P49840). The data set is described as follows: GSK 3α enzyme inhibition (FRET, Z-LYTE). Conditions: read-out: IC50 Values for Enzyme Inhibition GSK3α. Type of data set: biochemical. Here is the method:
The enzyme inhibitory activities of compounds disclosed herein were determined by FRET using synthetic peptides labelled with both donor and acceptor fluorophores (Z-LYTE, Invitrogen Ltd., Paisley, UK).
The inhibitory activities of test compounds against the GSK 3α enzyme isoform (Invitrogen), were evaluated by determining the level of activation/phosphorylation of the target peptide.
The GSK3-α protein (500 ng/mL, 2.5 μL) was mixed with the test compound (2.5 μL at either 4 μg/mL, 0.4 μg/mL, 0.04 μg/mL, or 0.004 μg/mL) for 2 hr at RT. The FRET peptide (8 μM, 2.5 μL), which is a phosphorylation target for GSK3α, and ATP (40 μM, 2.5 μL) were then added to the enzyme/compound mixture and the resulting mixture incubated for 1 hr. Development reagent (protease, 5 μL) was added for 1 hr prior to detection in a fluorescence microplate reader (Varioskan® Flash, ThermoFisher Scientific).
In all cases, the site-specific protease cleaves non-phosphorylated peptide only and eliminates the FRET signal. Phosphorylation levels of each reaction were calculated using the ratio of coumarin emission (donor) over fluorescein emission (acceptor), for which low ratios indicate high phosphorylation and high ratios indicate low phosphorylation levels.

Data set [2] deals with p38 MAPKα isoform (MAPK14) (Homo sapiens (Human), UniProt Q16539). In words: p38 MAPKα enzyme inhibition (FRET, Z-LYTE). Type of data set: biochemical. The procedure: The enzyme inhibitory activities of compounds disclosed herein were determined by FRET using synthetic peptides labelled with both donor and acceptor fluorophores (Z-LYTE, Invitrogen Ltd., Paisley, UK). The inhibitory activities of test compounds against the p38 MAPKα isoform (MAPK14: Invitrogen), were evaluated indirectly by determining the level of activation/phosphorylation of the down-stream molecule, MAPKAP-K2. […] The mixture was incubated for 1 hr at RT. Development reagent (protease, 5 μL) was added for 1 hr prior to detection in a fluorescence microplate reader (Varioskan® Flash, ThermoFisher Scientific). In all cases, the site-specific protease cleaves non-phosphorylated peptide only and eliminates the FRET signal. Phosphorylation levels of each reaction were calculated using the ratio of coumarin emission (donor) over fluorescein emission (acceptor), for which low ratios indicate high phosphorylation and high ratios indicate low phosphorylation levels.

Another data set addresses p38MAPKγ (MAPK12) (Homo sapiens (Human), UniProt P53778). The data set is described as follows: p38 MAPKγ enzyme inhibition (FRET, Z-LYTE). In kind it is biochemical. Here is the method:
The enzyme inhibitory activities of compounds disclosed herein were determined by FRET using synthetic peptides labelled with both donor and acceptor fluorophores (Z-LYTE, Invitrogen Ltd., Paisley, UK). […] Development reagent (protease, 5 μL) was added for 1 hr prior to detection in a fluorescence microplate reader (Varioskan® Flash, Thermo Scientific). In all cases, the site-specific protease cleaves non-phosphorylated peptide only and eliminates the FRET signal. Phosphorylation levels of each reaction were calculated using the ratio of coumarin emission (donor) over fluorescein emission (acceptor), for which low ratios indicate high phosphorylation and high ratios indicate low phosphorylation levels.

Chain of p38MAPKγ (MAPK12) (P53778 whole entry): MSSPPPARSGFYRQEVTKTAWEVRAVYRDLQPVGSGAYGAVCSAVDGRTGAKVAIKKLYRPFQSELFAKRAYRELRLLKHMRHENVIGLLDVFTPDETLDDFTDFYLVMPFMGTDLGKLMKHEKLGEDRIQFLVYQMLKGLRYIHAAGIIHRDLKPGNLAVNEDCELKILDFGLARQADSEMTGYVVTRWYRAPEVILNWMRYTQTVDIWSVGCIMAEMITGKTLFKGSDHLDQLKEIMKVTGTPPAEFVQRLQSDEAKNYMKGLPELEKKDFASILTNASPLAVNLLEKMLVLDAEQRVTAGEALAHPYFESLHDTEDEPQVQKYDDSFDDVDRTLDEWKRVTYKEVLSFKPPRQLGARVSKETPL
Chain of GSK 3α enzyme isoform (P49840 whole entry, canonical isoform): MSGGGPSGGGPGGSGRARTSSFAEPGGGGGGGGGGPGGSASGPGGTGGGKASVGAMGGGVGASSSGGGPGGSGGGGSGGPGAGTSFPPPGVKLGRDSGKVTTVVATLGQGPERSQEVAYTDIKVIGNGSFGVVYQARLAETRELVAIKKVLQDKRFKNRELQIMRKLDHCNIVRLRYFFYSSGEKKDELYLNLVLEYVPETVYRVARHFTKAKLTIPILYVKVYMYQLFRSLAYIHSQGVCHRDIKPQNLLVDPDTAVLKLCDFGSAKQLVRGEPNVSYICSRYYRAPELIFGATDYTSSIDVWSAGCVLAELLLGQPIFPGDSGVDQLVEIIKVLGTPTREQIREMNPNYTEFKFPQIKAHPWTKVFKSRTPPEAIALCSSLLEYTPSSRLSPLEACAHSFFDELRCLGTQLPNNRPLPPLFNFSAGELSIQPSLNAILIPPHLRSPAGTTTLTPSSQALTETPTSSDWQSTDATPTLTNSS
Chain of p38 MAPKα isoform (MAPK14) (Q16539 whole entry, canonical isoform): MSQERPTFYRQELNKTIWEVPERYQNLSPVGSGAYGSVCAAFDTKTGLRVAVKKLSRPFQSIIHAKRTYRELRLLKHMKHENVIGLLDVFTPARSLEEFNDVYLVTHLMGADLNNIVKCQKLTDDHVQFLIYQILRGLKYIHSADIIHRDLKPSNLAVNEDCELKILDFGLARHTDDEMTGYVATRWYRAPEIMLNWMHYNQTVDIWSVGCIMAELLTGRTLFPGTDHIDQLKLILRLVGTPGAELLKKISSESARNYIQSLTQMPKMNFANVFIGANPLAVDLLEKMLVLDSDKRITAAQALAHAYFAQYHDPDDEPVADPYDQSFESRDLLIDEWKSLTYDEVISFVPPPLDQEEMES

`Cc1ccc(-n2nc(C(C)(C)C)cc2NC(=O)Nc2ccc(Oc3ccnc(Nc4cccc(C)c4)n3)c3ccccc23)cc1` [Example 12, 1-(3-(tert-butyl)-1-(p-tolyl)-lH-pyrazol-5-yl)-3-(4-((2-(m-tolylamino)pyrimidin-4-yl)oxy)naphthalen-1-yl)urea]: the “MTT Assay Cell viability at time point in d-U937 Cells” value (from here on “MTT Assay Cell viability”) in the data set with d-U937 cells (4 h) is “−ve (−ve and +ve indicate the value is below and above respectively, the no significant effect threshold defined as 30% inhibition at 1 μg/mL at the time point indicated)”; in the data set on d-U937 cells (24 h) it was “−ve (−ve and +ve indicate the value is below and above respectively, the no significant effect threshold defined as 30% inhibition at 1 μg/mL at the time point indicated)”. Further, the IC50 in data set [1] is 2.7 nM; on GSK 3α enzyme isoform, above 16700 nM; in data set [2], 169 nM; against p38MAPKγ (MAPK12), above 16700 nM.

Turning to `Cc1ccc(-n2nc(C(C)(C)C)cc2NC(=O)Nc2ccc(Oc3ccnc(Nc4ccc(O)cc4F)n3)c3ccccc23)cc1` [Example 30, 1-(3-(tert-butyl)-1-(p-tolyl)-1H-pyrazol-5-yl)-3-(4-((2-((2-fluoro-4-hydroxyphenyl)amino)pyrimidin-4-yl)oxy)naphthalen-1-yl)urea], the “MTT Assay Cell viability” value was “−ve (−ve and +ve indicate the value is below and above respectively, the no significant effect threshold defined as 30% inhibition at 1 μg/mL at the time point indicated)” in the data set on d-U937 cells (4 h); “−ve (−ve and +ve indicate the value is below and above respectively, the no significant effect threshold defined as 30% inhibition at 1 μg/mL at the time point indicated)” in the data set on d-U937 cells (24 h). Moreover, the IC50 is 11 nM in data set [1], above 1620 nM on GSK 3α enzyme isoform, 68 nM in data set [2] and above 1620 nM at p38MAPKγ (MAPK12).

As for `Cc1ccc(-n2nc(C(C)(C)C)cc2NC(=O)Nc2ccc(Oc3ccnc(Nc4cc(C)ccc4C)n3)c3ccccc23)cc1` [Example 10, 1-(3-(tert-butyl)-1-(p-tolyl)-1H-pyrazol-5-yl)-3-(4-((2-((2,5-dimethylphenyl)amino)pyrimidin-4-yl)oxy)naphthalen-1-yl)urea], the “MTT Assay Cell viability” value with d-U937 cells (4 h) was “−ve (−ve and +ve indicate the value is below and above respectively, the no significant effect threshold defined as 30% inhibition at 1 μg/mL at the time point indicated)”; with d-U937 cells (24 h), “−ve (−ve and +ve indicate the value is below and above respectively, the no significant effect threshold defined as 30% inhibition at 1 μg/mL at the time point indicated)”. Further, the IC50 in data set [1] is 43 nM; on GSK 3α enzyme isoform it was above 16300 nM; in data set [2], 195 nM; at p38MAPKγ (MAPK12) it was above 16300 nM.

In the case of `Cc1ccc(-n2nc(C(C)(C)C)cc2NC(=O)Nc2ccc(Oc3ccnc(Nc4cccc(F)c4)n3)c3ccccc23)cc1` [Example 15, 1-(3-(tert-butyl)-1-(p-tolyl)-1H-pyrazol-5-yl)-3-(4-((2-((3-fluorophenyl)amino)pyrimidin-4-yl)oxy)naphthalen-1-yl)urea], the “MTT Assay Cell viability” value was “−ve (−ve and +ve indicate the value is below and above respectively, the no significant effect threshold defined as 30% inhibition at 1 μg/mL at the time point indicated)” in the data set with d-U937 cells (4 h); “−ve (−ve and +ve indicate the value is below and above respectively, the no significant effect threshold defined as 30% inhibition at 1 μg/mL at the time point indicated)” in the data set on d-U937 cells (24 h). The IC50 in data set [1] was 9.3 nM; on GSK 3α enzyme isoform, above 16600 nM; in data set [2], 155 nM; on p38MAPKγ (MAPK12), above 16600 nM.

With `COc1ccc(Nc2nccc(Oc3ccc(NC(=O)Nc4cc(C(C)(C)C)nn4-c4ccc(C)cc4)c4ccccc34)n2)cc1` [Example 17, 1-(3-(tert-butyl)-1-(p-tolyl)-1H-pyrazol-5-yl)-3-(4-((2-((4-methoxyphenyl)amino)pyrimidin-4-yl)oxy)naphthalen-1-yl)urea], the “MTT Assay Cell viability” value in the data set with d-U937 cells (4 h) was “−ve (−ve and +ve indicate the value is below and above respectively, the no significant effect threshold defined as 30% inhibition at 1 μg/mL at the time point indicated)”; in the data set with d-U937 cells (24 h) it was “−ve (−ve and +ve indicate the value is below and above respectively, the no significant effect threshold defined as 30% inhibition at 1 μg/mL at the time point indicated)”. Also, the IC50 in data set [1] was 6.7 nM; at GSK 3α enzyme isoform, above 16300 nM; in data set [2], 83 nM; against p38MAPKγ (MAPK12), above 16300 nM.

Turning to `COc1ccc(Nc2nccc(Oc3ccc(NC(=O)Nc4cc(C(C)(C)C)nn4-c4ccc(C)cc4)c4ccccc34)n2)cc1Cl` [Example 28, 1-(3-(tert-butyl)-1-(p-tolyl)-1H-pyrazol-5-yl)-3-(4-((2-((3-chloro-4-methoxyphenyl)amino)pyrimidin-4-yl)oxy)naphthalen-1-yl)urea], the “MTT Assay Cell viability” value in the data set with d-U937 cells (4 h) is “−ve (−ve and +ve indicate the value is below and above respectively, the no significant effect threshold defined as 30% inhibition at 1 μg/mL at the time point indicated)”; in the data set with d-U937 cells (24 h), “−ve (−ve and +ve indicate the value is below and above respectively, the no significant effect threshold defined as 30% inhibition at 1 μg/mL at the time point indicated)”. Besides, the IC50 in data set [1] was 3 nM; at GSK 3α enzyme isoform, above 1540 nM; in data set [2] it was 1420 nM; at p38MAPKγ (MAPK12), above 1540 nM.

With `COc1cccc(Nc2nccc(Oc3ccc(NC(=O)Nc4cc(C(C)(C)C)nn4-c4ccc(C)cc4)c4ccccc34)n2)c1` [Example 14, 1-(3-(tert-butyl)-1-(p-tolyl)-1H-pyrazol-5-yl)-3-(4-((2-((3-methoxyphenyl)amino)pyrimidin-4-yl)oxy)naphthalen-1-yl)urea], the “MTT Assay Cell viability” value in the data set on d-U937 cells (4 h) is “−ve (−ve and +ve indicate the value is below and above respectively, the no significant effect threshold defined as 30% inhibition at 1 μg/mL at the time point indicated)”; in the data set with d-U937 cells (24 h), “−ve (−ve and +ve indicate the value is below and above respectively, the no significant effect threshold defined as 30% inhibition at 1 μg/mL at the time point indicated)”. Further, the IC50 in data set [1] was 9.8 nM; at GSK 3α enzyme isoform, above 16300 nM; in data set [2], 119 nM; at p38MAPKγ (MAPK12) it was above 16300 nM.
